{"source": "paper PMC12787591", "about": "(Nutrients, 2025)", "biological_target": "T1, α-amylase (α-salivary amylase)", "T1 construct": "gene AMY1A", "test": "enzyme inhibition assay with soluble starch and […],5-dinitrosalicylic acid", "assay_type": "biochemical, Homo sapiens", "data": [{"smiles": "OC[C@H]1NC[C@H](O)[C@@H](O)[C@@H]1O", "note": "[DNJ, 1-Deoxynojirimycin]", "values": [{"measurement": "α-Amylase Experiment / IC50", "result": 22.69, "unit": "µg/mL"}]}]}
